Laboratory results taken from patent US9034825B2, “Treatment of myocardial injury with humanin analogs” (Albert Einstein College of Medicine of Yeshiva University, priority 2007, dated 2015).

How the values were obtained:
Sprague-Dawley rats = assay: ICV infusion of humanin or F6A HN with basal and hyperinsulinemic clamp (Example 2); assay type: in vivo, rat
Description: Young (3 mo old, n=6 in each group), male Sprague-Dawley rats (Charles River Laboratories, Wilmington, Mass.) were used for this study. Rats were housed in individual cages and were subjected to a standard light (6:00 AM to 6:00 PM)—dark (6:00 PM to 6:00 AM) cycle. All rats were fed ad libitum using regular rat chow that consisted of 64% carbohydrate, 30% protein, and 6% fat with a physiological fuel value of 3.3-kcal/g chow. 2 to 4 weeks before the in vivo study, the rats were anesthetized by inhalation of isoflurane and ICV cannula was placed in the third ventricle for infusions of humanin, humanin analog F6A HN or artificial CSF (aCSF), as previously described (Muzumdar et al., 2003) (FIG. 6). Briefly, a 26-gauge stainless steel guide cannula (Plastics One, Roanoke, Va.) was chronically implanted into the third ventricles using the following coordinates from bregma: anterior-posterior; +0.2 mm dorsal-ventral; −9.0 mm medial-lateral; 0.0 directly on the mid-sagittal suture, followed by a 28-gauge dummy cannula, inserted to prevent clogging of the guide cannula. The implant was secured to the skull with Caulk Grip dental cement, and the skin was closed over the implant using wound clips. The recovery of rats from the surgical stress was monitored with daily weight, food intake, and movement.
Upon recovery of body weight, usually a week, indwelling catheters were placed in the right internal jugular vein and in the left carotid artery (Muzumdar et al., 2003). The venous catheter was extended to the level of the right atrium, and the arterial catheter was advanced to the level of the aortic arch. Recovery was continued until body weight was within 3% of the pre-operative weight (˜4-6 days). In the rats that received peripheral humanin, only the vascular catheters were placed.
Studies were performed in unrestrained rats using the insulin clamp technique, in combination with high performance liquid chromatography-purified [3-^3H]glucose, as described previously (Liu et al., 1998). Food was removed for ˜5 h before the in vivo protocol. All studies lasted 360 min and included a 120-min equilibration period, a 120-min basal period for assessment of the basal glucose turnover, and a 120-min hyperinsulinemic clamp period. All rats received ICV infusions (bolus followed by continuous ICV infusions of humanin, F6A HN or aCSF, depending on the group) over the entire 6 hours of the study. At the beginning of the basal period and 120 min before starting the glucose/insulin infusions, a primed-continuous infusion of high performance liquid chromatography-purified [3-^3H]glucose (NEN Life Science Products, Boston, Mass.; 20 μCi of bolus, 0.2 μCi/min) was initiated and maintained throughout the remaining 4 h of the study. In the final 2 hours of the study, the rats were subjected to hyperinsulinemic clamp. The protocol followed during the insulin clamp study was similar to that previously described (Liu et al., 1998). Briefly, a primed-continuous infusion of regular insulin (3 milliunits/kg-min) was administered, and a variable infusion of a 25% glucose solution was started and periodically adjusted to clamp the plasma glucose concentration at 7-8 mM. To prevent endogenous insulin secretion and in order to control for possible effects of ICV infusions on the endocrine pancreas, somatostatin (1.5 μg/kg-min) was also infused in all the groups.
A bolus of humanin (6 μg) was followed by a continuous infusion over 6 hours (total dose of 18 μg, 0.1 μg/kg/min).
F6A HN has one amino acid substitution (F6A-phenylalanine to alanine on position 6) and has been characterized. A bolus of F6 A HN ([…]) was followed by a continuous infusion over 6 hours (total 18 μg, 0.1 μg/kg/min).
Plasma glucose (sample volume 10 μl) was measured by the glucose oxidase method (Glucose Analyzer II, Beckman Instruments, Palo Alto, Calif.). […]

[1] = system: phospho STAT-3 in hypothalamus; assay: Western blot of hypothalamic STAT-3 phosphorylation after ICV infusion; assay type: in vivo, rat; conditions: within an hour of ICV HN infusion
Procedure: The indicated tissues were homogenized in 20 mM MOPS, 2 mM EGTA, 5 mM EDTA, 30 mM sodium fluoride, 40 mM beta-glycerophosphate, 10 mM sodium pyrophosphate, 2 mM orthovanadate, 0.5% NP-40 and complete protease inhibitor cocktail (Roche, Indianapolis, Ind., USA) and centrifuged at 12,000 g for 15 min and the supernatant was harvested while carefully avoiding the lipid layer on top. Protein concentration was measured with a BCA protein quantification kit (Pierce, Rockford, Ill., USA). Protein extracts were separated on 4-12% NuPAGE (Invitrogen, Carlsbad, Calif., USA) gels and were blotted onto Immobilon FL PVDF (Millipore, Billerica, Mass., USA). […] After three washes in TBS-T and a final wash in TBS the blots were scanned using the LI-COR Odyssey (LI-COR, Lincoln, Nebr., USA) and quantified using Odyssey 2.0 software based on direct fluorescence measurement.
For acute signaling studies, rats were injected ICV with either aCSF, 20 μg of HN or F6A (dissolved in aCSF) over 5 min, and sacrificed 30 min later. […] Samples were also obtained from these tissues at the end of the clamp and western blot analysis was performed as described previously (Muzumdar et al. 2003) The blots were scanned using the LI-COR Odyssey (LI-COR, Lincoln, Nebr., USA) and quantified using Odyssey 2.0 software based on direct fluorescence measurement. […]

[2] = ICV 18 μg over 6 h, basal period
[3] = ICV 18 μg over 6 h, hyperinsulinemic clamp

## CC[C@H](C)[C@H](NC(=O)[C@H](CCC(=O)O)NC(=O)[C@H](CO)NC(=O)[C@@H](NC(=O)[C@H](CC(C)C)NC(=O)[C@H](CC(C)C)NC(=O)[C@H](CC(C)C)NC(=O)[C@H](CC(C)C)NC(=O)[C@H](CS)NC(=O)[C@H](CO)NC(=O)[C@H](Cc1ccccc1)NC(=O)CNC(=O)[C@H](CCCNC(=N)N)NC(=O)[C@@H]1CCCN1C(=O)[C@H](C)NC(=O)[C@@H](N)CCSC)[C@@H](C)O)C(=O)N[C@@H](CC(=O)O)C(=O)N[C@@H](CC(C)C)C(=O)N1CCC[C@H]1C(=O)N[C@H](C(=O)N[C@@H](CCCCN)C(=O)N[C@@H](CCCNC(=N)N)C(=O)N[C@@H](CCCNC(=N)N)C(=O)N[C@@H](C)C(=O)O)C(C)C [Humanin, maprgfscll lltseidlpv krra]
Sprague-Dawley rats; [2]
  Glycogen synthesis, Basal: 4.89 ± 0.61
  Glycolysis, Basal: 7.99 ± 0.73 mg/kg/min
  HGP, Basal: 12.87 ± 1.6 mg/kg/min
Sprague-Dawley rats; [3]
  FFA: 0.33 ± 0.03 mEq/L
  Glycogen synthesis, Clamp: 9.75 ± 0.92
  Glycolysis, Clamp: 15.1 ± 1.0 mg/kg/min
  HGP, Clamp: 2.27 ± 0.37 mg/kg/min
  Rd, Clamp: 24.9 ± 1.6 mg/kg/min
Sprague-Dawley rats; ICV 18 μg over 6 h, hyperinsulinemic clamp 3 mU/kg/min
  GIR, Clamp: 22.8 ± 1.64 mg/kg/min
Sprague-Dawley rats; ICV HN, hyperinsulinemic clamp
  increase in peripheral glucose uptake (Rd): ~150%
  more reduction in hepatic glucose production (HGP): ~50%
  suppression of FFA compared to controls: significantly higher
Sprague-Dawley rats; ICV HN, hyperinsulinemic clamp 3 mU/kg/min
  glucose infusion rate (GIR) relative to aCSF: 165 % of aCSF
Sprague-Dawley rats; ICV HN, Example Summary, in mg/kg/min (unit assumed)
  glucose infusion rate (GIR) during the hyperinsulinemic clamp: 25.2 ±2.6
Sprague-Dawley rats; after ICV infusion
  humanin in the rat periphery: No humanin was detected
[1]
  increase in STAT-3 phosphorylation in hypothalamic tissues: 10 fold
